Measured values published in patent publication US12338266B2 (GENETIC S.P.A., priority 2019, dated 2025).

What was measured:
[1] = test system: mice with OVA-induced allergic asthma; assay: Salbutamol-induced relaxation of carbachol pre-contracted bronchi of OVA-sensitized mice (Protocol-1); type: in vivo, Balb/c mice
Procedure: Balb/c mice (8-9 weeks old, Charles River, Calco, Italy) were housed in the animal care facility at the Department of Pharmacy of the University of Naples. […] All animals were allowed to acclimate for four days prior to experiments and were subjected to 12 h light-12 h dark schedule. Each mouse was assigned an identity number and randomtzed to different groups so that all experiments were carried out in a blinded manner. The experimental procedures were approved by the Italian Ministry according to International and National law and policies (EU Directive 2010/63/EU and Italian DL 26/2014 for animal experiments, ARRIVE guidelines and the Basel declaration including the 3R concept). Animal studies are reported in compliance with the ARRIVE guidelines. Balb/c mice is the most widely mouse strain used to study asthma-like features in vivo and to investigate the undedying molecular and cellular mechanisms of allergen sensitization. Mice were treated subcutaneously (s.c.) with 0.4 mL (100 μg) of ovalbumin (OVA) complexed with alum (13 mg mL^−1) (OVA group) at day 0 and 7. Chicken egg-white ovalbumin (OVA: grade V. cat. A5503, Sigma Chemical Co., St. Louis, MO) was dissolved in sterile phosphate buffered saline (PBS) solution (250 μg/1 ml) and Al(OH)3 was added (at 13 mg/ml). This mix was used to induce the allergic sensitization of the animals by subcutaneous injection. OVA was dissolved at 3% in sterile PBS solution and this solution was nebulized (as the immunological challenges). At day 21 mice were exposed to OVA challenge for three days and then sacrificed. […] A group of animals was treated s.c. with saline (vehicle group). […] Animals were killed at selected time points by overdose of enflurane and bronchi and blood collected. Main bronchi were rapidly dissected and cleaned from fat and connective tissue. Rings of 1-2 mm length were cut and mounted in 2.5 mL isolated organ baths containing Krebs solution, at 37° C., oxygenated (95% O2 and 5% CO2), and connected to an isometric force transducer (type 7000. Ugo Basile. Cornerio, Italy) associated to a Powerlab 800 (AD Instruments). Rings were initially stretched until a resting tension of 0.5 g and allowed to equilibrate for at least 30 min. In each experiment bronchial rings were previously challenged with acetylcholine (10^−6 M) until a reproducible response curve was obtained. Subsequently, after tissue washing, a cumulative concentration response curve to carbachol (10^−9-3×10^−6 M) was performed. Results were expressed as dyne/mg tissue. In another set of experiments on bronchi pre-contracted with carbachol and salbutamol-induced relaxation was assessed.

[2] = test system: mice with OVA-induced allergic asthma; assay: Plasma IgE levels by ELISA in OVA-sensitized mice (Protocol-1); type: in vivo, Balb/c mice
Procedure: Balb/c mice (8-9 weeks old, Charles River, Calco, Italy) were housed in the animal care facility at the Department of Pharmacy of the University of Naples. Italy in a controlled environment (temperature 21±2° C. and humidity 60±10%) and provided with standard rodent chow and water. All animals were allowed to acclimate for four days prior to experiments and were subjected to 12 h light-12 h dark schedule. Each mouse was assigned an identity number and randomtzed to different groups so that all experiments were carried out in a blinded manner. The experimental procedures were approved by the Italian Ministry according to International and National law and policies (EU Directive 2010/63/EU and Italian DL 26/2014 for animal experiments, ARRIVE guidelines and the Basel declaration including the 3R concept). Animal studies are reported in compliance with the ARRIVE guidelines. Balb/c mice is the most widely mouse strain used to study asthma-like features in vivo and to investigate the undedying molecular and cellular mechanisms of allergen sensitization. Mice were treated subcutaneously (s.c.) with 0.4 mL (100 μg) of ovalbumin (OVA) complexed with alum (13 mg mL^−1) (OVA group) at day 0 and 7. Chicken egg-white ovalbumin (OVA: grade V. cat. A5503, Sigma Chemical Co., St. Louis, MO) was dissolved in sterile phosphate buffered saline (PBS) solution (250 μg/1 ml) and Al(OH)3 was added (at 13 mg/ml). This mix was used to induce the allergic sensitization of the animals by subcutaneous injection. OVA was dissolved at 3% in sterile PBS solution and this solution was nebulized (as the immunological challenges). At day 21 mice were exposed to OVA challenge for three days and then sacrificed. This experimental procedure induces in the mice an increase in plasma IgE levels and this effect is by itself sufficient to induce a significant increase in bronchial hyper-responsiveness and pulmonary inflammation, typical hallmarks of asthma. A group of animals was treated s.c. with saline (vehicle group). […] Animals were killed at selected time points by overdose of enflurane and bronchi and blood collected.
Blood was collected by intracardiac puncture using citrate as anticoagulant. Plasma was obtained by centrifugation at 800×g at 4′C for 10 minutes and immediately frozen at −80° C. Total IgE levels were measured by means of ELISA using matched antibody pairs (BD Biosciences Pharmingen San Jose, Calif.).

CC(C)(O)c1ccccc1CCC(SCC1(CC(=O)OCC(=O)[C@@]23O[C@H](C4CCCCC4)O[C@@H]2C[C@H]2[C@@H]4CCC5=CC(=O)C=C[C@]5(C)[C@H]4[C@@H](O)C[C@@]23C)CC1)c1cccc(/C=C/c2ccc3ccc(Cl)cc3n2)c1 (stereo partly drawn) [montelukast desisobutyryl-ciclesonide ester]
salbutamol-induced relaxation compared to vehicle ([1]; 2 mg/Kg i.p.): further increase in salbutamol-induced relaxation when compared to vehicle
salbutamol-induced bronchial relaxation ([1]; 0.5, 1 and 2 mg/Kg i.p., FIG. 5B): rescued salbutamol ability to inducing bronchial relaxation at all doses tested
preserving salbutamol induced bronchial relaxation, compared to ciclesonide ([1]; ester 2 mg/kg i.p. vs ciclesonide 1 mg/kg): significant major efficacy in preserving salbutamol induced bronchial relaxation
preserving salbutamol relaxation, ester versus montelukast ([1]; ester 2 mg/kg i.p. vs montelukast 1 mg/kg, FIG. 7B): significantly enhanced
allergen induced plasma IgE increase ([2]; 0.5, 1 and 2 mg/Kg i.p.): reduces allergen induced IgE increase in a dose-dependent manner
inhibition of allergen induced IgE increase, compared to ciclesonide ([2]; ester 2 mg/kg i.p. vs ciclesonide 1 mg/kg, FIG. 6C): increased inhibitory effect
